Measurements from patent US20150094474A1, “AGRICULTURAL CHEMICALS” (Redx Pharma Ltd., priority 2012, published 2015).

What was measured:
[1] = test system: barley; assay: Herbicidal bioassay, barley (% necrosis); type: in vivo
Summary of the method: (§1)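 Lolium perenne, barley, peas and Chinese cabbage at 2-4 true leaf stage sprayed simultaneously with a Potter tower, compounds in DMSO at six concentrations (0.05% to 0.0001%). Phytotoxicity scored as % necrosis per EPPO PP1/135 at set intervals; five replicates per treatment and species; DMSO and water controls.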

[2] = test system: peas; assay: Herbicidal bioassay, peas (% necrosis); type: in vivo
Summary of the method: as §1

CC(/C=N/OCc1ccccc1)Oc1ccc(Oc2ccc(C(F)(F)F)cn2)cc1 (stereo not drawn) [Compound 65, N-Benzyloxy-2-[4-[[5-(trifluoromethyl)-2-pyridyl]oxy]phenoxy]propan-1-imine]
C (less than 50% necrosis): Sum of % necrosis in barley ([1]; Dose 0.000001, Day 0) | Sum of % necrosis in barley ([1]; Dose 0.000001, Day 1) | Sum of % necrosis in barley ([1]; Dose 0.000001, Day 3) | Sum of % necrosis in barley ([1]; Dose 0.000001, Day 7) | Sum of % necrosis in barley ([1]; Dose 0.000001, Day 10) | Sum of % necrosis in barley ([1]; Dose 0.000001, Day 14) | Sum of % necrosis in barley ([1]; Dose 0.000005, Day 0) | Sum of % necrosis in barley ([1]; Dose 0.000005, Day 1) | Sum of % necrosis in barley ([1]; Dose 0.000005, Day 3) | Sum of % necrosis in barley ([1]; Dose 0.000005, Day 7) | Sum of % necrosis in barley ([1]; Dose 0.000005, Day 10) | Sum of % necrosis in barley ([1]; Dose 0.000005, Day 14) | Sum of % necrosis in barley ([1]; Dose 0.00001, Day 0) | Sum of % necrosis in barley ([1]; Dose 0.00001, Day 1) | Sum of % necrosis in barley ([1]; Dose 0.00001, Day 3) | Sum of % necrosis in barley ([1]; Dose 0.00001, Day 7) | Sum of % necrosis in barley ([1]; Dose 0.00001, Day 10) | Sum of % necrosis in barley ([1]; Dose 0.00001, Day 14) | Sum of % necrosis in barley ([1]; Dose 0.00005, Day 0) | Sum of % necrosis in barley ([1]; Dose 0.00005, Day 1) | Sum of % necrosis in barley ([1]; Dose 0.00005, Day 3) | Sum of % necrosis in barley ([1]; Dose 0.00005, Day 7) | Sum of % necrosis in barley ([1]; Dose 0.00005, Day 10) | Sum of % necrosis in barley ([1]; Dose 0.00005, Day 14) | Sum of % necrosis in barley ([1]; Dose 0.0001, Day 0) | Sum of % necrosis in barley ([1]; Dose 0.0001, Day 1) | Sum of % necrosis in barley ([1]; Dose 0.0001, Day 3) | Sum of % necrosis in barley ([1]; Dose 0.0001, Day 7) | Sum of % necrosis in barley ([1]; Dose 0.0001, Day 10) | Sum of % necrosis in barley ([1]; Dose 0.0001, Day 14) | Sum of % necrosis in barley ([1]; Dose 0.0005, Day 0) | Sum of % necrosis in barley ([1]; Dose 0.0005, Day 1) | Sum of % necrosis in barley ([1]; Dose 0.0005, Day 3) | Sum of % necrosis in barley ([1]; Dose 0.0005, Day 7) | Sum of % necrosis in barley ([1]; Dose 0.0005, Day 10) | Sum of % necrosis in barley ([1]; Dose 0.0005, Day 14) | Sum of % necrosis in Peas ([2]; Dose 0.000001, Day 0) | Sum of % necrosis in Peas ([2]; Dose 0.000001, Day 1) | Sum of % necrosis in Peas ([2]; Dose 0.000001, Day 3) | Sum of % necrosis in Peas ([2]; Dose 0.000001, Day 7) | Sum of % necrosis in Peas ([2]; Dose 0.000001, Day 10) | Sum of % necrosis in Peas ([2]; Dose 0.000001, Day 14) | Sum of % necrosis in Peas ([2]; Dose 0.000005, Day 0) | Sum of % necrosis in Peas ([2]; Dose 0.000005, Day 1) | Sum of % necrosis in Peas ([2]; Dose 0.000005, Day 3) | Sum of % necrosis in Peas ([2]; Dose 0.000005, Day 7) | Sum of % necrosis in Peas ([2]; Dose 0.000005, Day 10) | Sum of % necrosis in Peas ([2]; Dose 0.000005, Day 14) | Sum of % necrosis in Peas ([2]; Dose 0.00001, Day 0) | Sum of % necrosis in Peas ([2]; Dose 0.00001, Day 1) | Sum of % necrosis in Peas ([2]; Dose 0.00001, Day 3) | Sum of % necrosis in Peas ([2]; Dose 0.00001, Day 7) | Sum of % necrosis in Peas ([2]; Dose 0.00001, Day 10) | Sum of % necrosis in Peas ([2]; Dose 0.00001, Day 14) | Sum of % necrosis in Peas ([2]; Dose 0.00005, Day 0) | Sum of % necrosis in Peas ([2]; Dose 0.00005, Day 1) | Sum of % necrosis in Peas ([2]; Dose 0.00005, Day 3) | Sum of % necrosis in Peas ([2]; Dose 0.00005, Day 7) | Sum of % necrosis in Peas ([2]; Dose 0.00005, Day 10) | Sum of % necrosis in Peas ([2]; Dose 0.00005, Day 14) | Sum of % necrosis in Peas ([2]; Dose 0.0001, Day 0) | Sum of % necrosis in Peas ([2]; Dose 0.0001, Day 1) | Sum of % necrosis in Peas ([2]; Dose 0.0001, Day 3) | Sum of % necrosis in Peas ([2]; Dose 0.0001, Day 7) | Sum of % necrosis in Peas ([2]; Dose 0.0001, Day 10) | Sum of % necrosis in Peas ([2]; Dose 0.0001, Day 14) | Sum of % necrosis in Peas ([2]; Dose 0.0005, Day 0) | Sum of % necrosis in Peas ([2]; Dose 0.0005, Day 1) | Sum of % necrosis in Peas ([2]; Dose 0.0005, Day 3) | Sum of % necrosis in Peas ([2]; Dose 0.0005, Day 7) | Sum of % necrosis in Peas ([2]; Dose 0.0005, Day 10) | Sum of % necrosis in Peas ([2]; Dose 0.0005, Day 14)
